Measured values reported in patent US11858905B1, “Cathepsin L inhibitors” (priority 2023, dated 2024).
Where two headings read alike, the source gives them in different places.

Experiments:
RSV = RSV infected mice; cited from earlier work
SARS-CoV-2 PsVs = assay: microbe, parasite or virus in culture; format: cell-based; conditions: Severe acute respiratory syndrome coronavirus 2, Vero C1008, 24 h; for activity at 0.5 µM: read-out: % Infection rate at 500 nM; for activity at 5 µM: read-out: % Infection rate at 5 uM
human CatL = human CatL (Homo sapiens (Human), UniProt P07711); assay: Human Cathepsin L (CatL) enzymatic assay; format: biochemical
human CatL, sequence (P07711 whole entry, looked up): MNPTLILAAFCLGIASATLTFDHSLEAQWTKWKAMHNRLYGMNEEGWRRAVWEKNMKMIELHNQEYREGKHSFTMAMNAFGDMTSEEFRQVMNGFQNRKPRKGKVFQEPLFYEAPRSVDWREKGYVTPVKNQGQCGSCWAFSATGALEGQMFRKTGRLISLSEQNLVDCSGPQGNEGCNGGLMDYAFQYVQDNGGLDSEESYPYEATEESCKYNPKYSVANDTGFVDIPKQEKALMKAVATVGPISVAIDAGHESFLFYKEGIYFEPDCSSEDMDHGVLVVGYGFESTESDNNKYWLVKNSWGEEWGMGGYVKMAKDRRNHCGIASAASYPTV
Protocol: Human Cathepsin L (CatL) Enzymatic Assay
60 μL of the compounds were added to 384-well dilution plate. The compound solution was diluted for 1:3 in succession in DMSO for each column for 10 pts. 0.05 μL diluted compound solution was added in each row to 384 assay plates (Corning 4514) using Echo (LABCYTE 655), each column containing 2 replicates. 5 μL working solution of human CatL enzyme (Abcam #ab81780) was added to 384-well assay plate, centrifuge 1000 rpm for 1 min. The mixture was incubated at […] for 15 min, then add 5 μL working solution of CatL substrate (Genscript #C7360HB140_5) to initiate the reaction (CatL: 0.05 nM, Substrate: 500 nM). Incubate at […] for 30 min. Reading Ex370 nm and Em460 nm fluorescence signals with BMG CLARIO Star Plusaucu. Percent inhibition for each compound was calculated and IC50 (half maximal inhibitory concentration) was fitted from non-linear regression by XLfit 5.5.0.

[1] = CatL 0.05 nM, substrate 500 nM, pH 5.5, read-out: Enzymatic inhibition IC50
[2] = summary of Table 2, read-out: IC50 for inhibiting CatL

In the case of `NC(=O)c1ncn([C@@H]2O[C@H](CO)[C@@H](O)[C@H]2O)n1` [ribavirin], the airway hyperresponsiveness (RSV) is given as “prevented airway hyperresponsiveness” and the viral clearance (RSV) is given as “enhanced viral clearance”.

For `CC(C)C[C@H](NC(=O)[C@H]1O[C@@H]1C(=O)O)C(=O)NCCCCN=C(N)N` [Compound E64, E64], the airway hyperresponsiveness (RSV) is listed as “prevented airway hyperresponsiveness” and the viral clearance (RSV) is listed as “enhanced viral clearance”.

`N#CCNC(=O)[C@H](Cc1nc2ccccc2o1)NC(=O)c1cc(C2CC2)nn1C1CC1` [Compound 15, (S)—N-(3-(benzo[d]oxazol-2-yl)-1-((cyanomethyl)amino)-1-oxopropan-2-yl)-1,3-dicyclopropyl-1H-pyrazole-5-carboxamide] gave an activity at 0.5 µM (SARS-CoV-2 PsVs) of 79%, an activity at 5 µM (SARS-CoV-2 PsVs) of 20% and an IC50 (human CatL; [1]) of 19.4 nM. For the same molecule, the IC50 (human CatL; [2]) was < 50 nM.

`Cc1cccc(C(=O)N[C@@H](Cc2nc3ccccc3o2)C(=O)NC2(C#N)CC2)n1` [Compound 14, (S)—N-(3-(benzo[d]oxazol-2-yl)-1-((1-cyanocyclopropyl)amino)-1-oxopropan-2-yl)-6-methylpicolinamide] showed an activity at 0.5 µM (SARS-CoV-2 PsVs) of 103%, an activity at 5 µM (SARS-CoV-2 PsVs) of 97% and an IC50 (human CatL; [1]) of 534 nM.

Work on `Cc1cc(-c2ccc3nc(C[C@H](NC(=O)c4cc(C5(C)CC5)nn4C4CC4)C(=O)NCC#N)oc3c2)ccn1` [Compound 35, (S)—N-(1-((cyanomethyl)amino)-3-(6-(2-methylpyridin-4-yl)benzo[d]oxazol-2-yl)-1-oxopropan-2-yl)-1-cyclopropyl-3-(1-methylcyclopropyl)-1H-pyrazole-5-carboxamide] yielded an activity at 0.5 µM (SARS-CoV-2 PsVs) of 40%, an activity at 5 µM (SARS-CoV-2 PsVs) of 3.1% and an IC50 (human CatL; [1]) of 1.1 nM.

With `N#CC1(NC(=O)[C@H](Cc2nc3c(-c4cn[nH]c4)cccc3o2)NC(=O)c2cccc(Cl)c2)CC1` [Compound 23, (S)—N-(3-(4-(1H-pyrazol-4-yl)benzo[d]oxazol-2-yl)-1-((1-cyanocyclopropyl)amino)-1-oxopropan-2-yl)-3-chlorobenzamide] the activity at 0.5 µM (SARS-CoV-2 PsVs) was 93%, the activity at 5 µM (SARS-CoV-2 PsVs) was 98% and the IC50 (human CatL; [1]) was 361 nM.

With `N#CC1(NC(=O)[C@H](Cc2nc3ccc(F)cc3o2)NC(=O)c2cccc(Cl)c2)CC1` [Compound 4, (S)-3-chloro-N-(1-((1-cyanocyclopropyl)amino)-3-(6-fluorobenzo[d]oxazol-2-yl)-1-oxopropan-2-yl)benzamide] the activity at 0.5 µM (SARS-CoV-2 PsVs) was 81%, the activity at 5 µM (SARS-CoV-2 PsVs) was 51% and the IC50 (human CatL; [1]) was 34.9 nM.

`N#CC1(NC(=O)[C@H](Cc2nc3cccc(Br)c3o2)NC(=O)c2cccc(Cl)c2)CC1` [Compound 3, (S)—N-(3-(7-bromobenzo[d]oxazol-2-yl)-1-((1-cyanocyclopropyl)amino)-1-oxopropan-2-yl)-3-chlorobenzamide] showed an activity at 0.5 µM (SARS-CoV-2 PsVs) of 65%, an activity at 5 µM (SARS-CoV-2 PsVs) of 10% and an IC50 (human CatL; [1]) of 5.9 nM. For the same molecule, the IC50 (human CatL; [2]) was < 10 nM.

Molecule `N#CC1(NC(=O)[C@H](Cc2nc3c(Cl)cccc3o2)NC(=O)c2cccc(Cl)c2)CC1` [Compound 7, (S)-3-chloro-N-(3-(4-chlorobenzo[d]oxazol-2-yl)-1-((1-cyanocyclopropyl)amino)-1-oxopropan-2-yl)benzamide] has an activity at 0.5 µM (SARS-CoV-2 PsVs) of 96%, an activity at 5 µM (SARS-CoV-2 PsVs) of 48% and an IC50 (human CatL; [1]) of 21.1 nM.

For `Cc1ccc(-c2ccc3nc(C[C@H](NC(=O)c4cc(C5(C)CC5)nn4C4CC4)C(=O)NC4(C#N)CC4)oc3c2)cn1` [Compound 42, (S)—N-(1-((1-cyanocyclopropyl)amino)-3-(6-(6-methylpyridin-3-yl)benzo[d]oxazol-2-yl)-1-oxopropan-2-yl)-1-cyclopropyl-3-(1-methylcyclopropyl)-1H-pyrazole-5-carboxamide], the activity at 0.5 µM (SARS-CoV-2 PsVs) was 34%, the activity at 5 µM (SARS-CoV-2 PsVs) was 5.6% and the IC50 (human CatL; [1]) was 4.5 nM.

For `CC1(c2cc(C(=O)N[C@@H](Cc3nc4ccc(-c5ccnc(C(F)F)c5)cc4o3)C(=O)NC3(C#N)CC3)n(C3CC3)n2)CC1` [Compound 47, (S)—N-(1-((1-cyanocyclopropyl)amino)-3-(6-(2-(difluoromethyl)pyridin-4-yl)benzo[d]oxazol-2-yl)-1-oxopropan-2-yl)-1-cyclopropyl-3-(1-methylcyclopropyl)-1H-pyrazole-5-carboxamide], the activity at 0.5 µM (SARS-CoV-2 PsVs) was 56%, the activity at 5 µM (SARS-CoV-2 PsVs) was 15.9% and the IC50 (human CatL; [1]) was 6.6 nM.

With `N#CC1(NC(=O)[C@H](Cc2nc3ccc(C(F)(F)F)cc3o2)NC(=O)c2cccc(Cl)c2)CC1` [Compound 11, (S)-3-chloro-N-(1-((1-cyanocyclopropyl)amino)-1-oxo-3-(6-(trifluoromethyl)benzo[d]oxazol-2-yl)propan-2-yl)benzamide] the activity at 0.5 µM (SARS-CoV-2 PsVs) was 86%, the activity at 5 µM (SARS-CoV-2 PsVs) was 81% and the IC50 (human CatL; [1]) was 94.6 nM.
